Here are results for seven compounds from paper PMC12442009, “Self-Assembling Cyclic Peptide Nanotubes for the Delivery of Doxorubicin into Drug-Resistant Cancer Cells” (ACS Applied Materials & Interfaces, 2025).

Assay [1] concerns MCF-7 (breast cancer cell line). Description: MTT cell growth inhibition, MCF-7. It counts as cell-based. Conditions: for E max (% inhibition): inhibition at highest concentration tested (100 μM), triplicate points.
Description: (§1) The cell growth inhibition of each compound was evaluated using the MTT (3-[4,5-dimethylthiazol-2-yl]-2,5-diphenyltetrazolium bromide) assay. MCF-7 and MRC-5 cells were grown on a Minimum Essential Medium Eagle, while NCI-H460 and NCI/ADR-RES cells were grown on RPMI 1640 culture medium. All culture mediums were supplemented with 10% FBS (fetal bovine serum) and 1% penicillin-streptomycin-glutamine mix. […] MCF-7 (100,000 cells/mL), NCI-H460 (150,000 cells/mL), NCI/ADR-RES (150,000 cells/mL), or MRC-5 (100,000 cells/mL) cells were seeded the day before in sterile 96-well plates (100 μL/well). Then, cells were incubated with each concentration of the compound (100 μL/well) for the specified time for each cell line. The compounds were previously dissolved in DMSO and diluted at the time of the experiment with complete medium to the concentration to be tested. The DMSO content of each well was maintained at less than 1%. All concentrations were carried out with triplicate points, and controls with DMSO at the same proportion in which the compounds were dissolved were included in all experiments. After the incubation time, the samples were removed, and 100 μL of complete medium with 0.5 mg/mL MTT was added to each well. Cells were incubated for 4 h, and the medium was removed. The resulting formazan crystals were dissolved in DMSO (100 μL/well). The absorbance of each well at 595 nm was acquired with a Tecan Infinite F200Pro plate reader. A blank subtraction was performed (cells treated with Triton X-100), and the data were normalized to the value of the untreated cells (100% viability). Data were analyzed with GraphPad Prism software.
In assay [2] the test system is NCI-H460 (lung cancer cell line). The settings on record: for E max (% inhibition): inhibition at highest concentration tested (100 μM).
Description: as §1
Assay [3] concerns NCI/ADR-RES (doxorubicin-resistant ovarian cancer cell line). Description: MTT cell growth inhibition, NCI/ADR-RES. Conditions: for E max (% inhibition): inhibition at highest concentration tested (100 μM). It is filed as cell-based.
Description: as §1
Where [4] appears, read: MCF-7, 96 h incubation, MTT, 50% growth inhibition, calculated only if E max > 50%, read-out: IC50.
Where [5] appears, read: NCI/ADR-RES, 48 h incubation, MTT, calculated only if E max > 50%, read-out: IC50.
[6] abbreviates: NCI/ADR-RES, 48 h incubation, MTT.
The mark [7] stands for this setting: NCI/ADR-RES, 72 h incubation, MTT, calculated only if E max > 50%, read-out: IC50.

Read-outs that look alike come from different tables or passages of the source. Square brackets hold non-standard residues; d marks the D form. Peptide text beside a SMILES is read from it. Pra = C#CC[C@H](N)C(=O)O

For the compound `CCCCCCCCCCn1cc(C[C@@H]2NC(=O)[C@@H](Cc3c[nH]c4ccccc34)NC(=O)[C@H](CO)NC(=O)[C@@H](CCCCN)NC(=O)[C@H](CO)NC(=O)[C@@H](CS)NC(=O)[C@H](CCC(N)=O)NC(=O)[C@@H](CCCCN)NC2=O)nn1` [CP1T10], the IC50 is 78.8 ± 0.1 µM in assay [1] (setting [4]) and 68.9 ± 2.1 µM in assay [3] (setting [5]). Besides, the “E max (% inhibition)” value in assay [1] (MCF-7, 96 h incubation, MTT) worked out at 59 ± 1 % inhibition; in assay [2] (NCI-H460, 48 h incubation, MTT), 28 ± 1 % inhibition; in assay [3] (setting [6]), 70 ± 2 % inhibition.

`CCCCCCCCCCCCCCn1cc(C[C@@H]2NC(=O)[C@@H](Cc3c[nH]c4ccccc34)NC(=O)[C@H](CO)NC(=O)[C@@H](CCCCN)NC(=O)[C@H](CO)NC(=O)[C@@H](CSC3CC(=O)N(CCCCCC(=O)NN=C(CO)[C@]4(O)Cc5c(O)c6c(c(O)c5[C@@H](O[C@H]5C[C@H](N)[C@H](O)[C@H](C)O5)C4)C(=O)c4c(OC)cccc4C6=O)C3=O)NC(=O)[C@H](CCC(N)=O)NC(=O)[C@@H](CCCCN)NC2=O)nn1` (stereo partly shown) [CP1T14-DOX]: the “E max (% inhibition)” value in assay [3] (setting [6]) came to 44 ± 4 % inhibition. The IC50 in assay [3] (setting [7]) was 5.7 ± 2.7 µM.

`C#CC[C@@H]1NC(=O)[C@@H](Cc2c[nH]c3ccccc23)NC(=O)[C@H](CO)NC(=O)[C@@H](CCCCN)NC(=O)[C@H](CO)NC(=O)[C@@H](CS)NC(=O)[C@H](CCC(N)=O)NC(=O)[C@@H](CCCCN)NC1=O` [CP1] (cyclo([Pra][dK]Q[dC]S[dK]S[dW])): the IC50 in assay [1] (96 h) is 17.7 ± 0.3 µM; in assay [2] (48 h), 37.9 ± 0.4 µM; in assay [3] (48 h), 55.8 ± 0.7 µM. Further, the “E max (% inhibition)” value in assay [3] (setting [6]) is reported as 90 ± 1 % inhibition.

On to `CCCCCCCCCCn1cc(C[C@@H]2NC(=O)[C@@H](Cc3c[nH]c4ccccc34)NC(=O)[C@H](CO)NC(=O)[C@@H](CS)NC(=O)[C@H](CO)NC(=O)[C@@H](CCCNC(=N)N)NC(=O)[C@H](CCC(N)=O)NC(=O)[C@@H](CCCCN)NC2=O)nn1` [CP2T10], for which the IC50 in assay [1] (96 h) turned out to be 50.2 ± 0.6 µM; in assay [3] (48 h), 68.2 ± 4.6 µM. In addition, the “E max (% inhibition)” value is reported as 63 ± 1 % inhibition in assay [1] (MCF-7, 96 h incubation, MTT); 80 ± 2 % inhibition in assay [2] (NCI-H460, 48 h incubation, MTT); 75 ± 2 % inhibition in assay [3] (setting [6]).

On to `CCCCCCCCCCCCCCn1cc(C[C@@H]2NC(=O)[C@@H](Cc3c[nH]c4ccccc34)NC(=O)[C@H](CO)NC(=O)[C@@H](CSC3CC(=O)N(CCCCCC(=O)NN=C(CO)[C@]4(O)Cc5c(O)c6c(c(O)c5[C@@H](O[C@H]5C[C@H](N)[C@H](O)[C@H](C)O5)C4)C(=O)c4c(OC)cccc4C6=O)C3=O)NC(=O)[C@H](CO)NC(=O)[C@@H](CCCNC(=N)N)NC(=O)[C@H](CCC(N)=O)NC(=O)[C@@H](CCCCN)NC2=O)nn1` (stereo partly shown) [CP2T14-DOX], for which the “E max (% inhibition)” value in assay [3] (setting [6]) is recorded as 39 ± 9 % inhibition; in assay [3] (NCI/ADR-RES, 72 h incubation, MTT) it was 51 ± 4 % inhibition; in assay [3] (NCI/ADR-RES, 72 h incubation, MTT, listed as CP2T 14 -DOX), “good activity”. For the same compound, in assay [3] (setting [7]), the half-inhibitory concentration (IC50) was 8.2 ± 0.8 µM.

For the compound `C#CC[C@@H]1NC(=O)[C@@H](Cc2c[nH]c3ccccc23)NC(=O)[C@H](CO)NC(=O)[C@@H](CS)NC(=O)[C@H](CO)NC(=O)[C@@H](CCCNC(=N)N)NC(=O)[C@H](CCC(N)=O)NC(=O)[C@@H](CCCCN)NC1=O` [CP2] (cyclo([Pra][dK]Q[dR]S[dC]S[dW])), the “E max (% inhibition)” value is recorded as 48 ± 1 % inhibition in assay [1] (MCF-7, 96 h incubation, MTT) and 8 ± 1 % inhibition in assay [2] (NCI-H460, 48 h incubation, MTT).

Turning to `N.N.[Cl][Pt][Cl]` [Cisplatin, cisplatin, reference compound], the IC50 is 7.8 ± 0.6 µM in assay [1] (setting [4]); 5.1 ± 0.6 µM in assay [2] (NCI-H460, 48 h incubation, MTT, calculated only if E max > 50%); 11.5 ± 0.6 µM in assay [3] (setting [5]). Also, the “E max (% inhibition)” value is listed as 78 ± 1 % inhibition in assay [1] (MCF-7, 96 h incubation, MTT); 53 ± 1 % inhibition in assay [2] (NCI-H460, 48 h incubation, MTT); 90 ± 1 % inhibition in assay [3] (setting [6]).
